# Measured values: publication PMC11249646, “Small-Molecule Disruptors of the Interaction between Calcium- and Integrin-Binding Protein 1 and Integrin αIIbβ3 as Novel Antiplatelet Agents” (ACS Pharmacology & Translational Science, 2024)
# Target: T1, CIB1 and αIIb interaction (CIB1-GST : F-αIIb peptide) (Homo sapiens, UniProt Q99828)
# T1 construct: made in house; host or cells: BL-21 plus RIL cells (E. coli)
# T1 sequence (Q99828 1-191): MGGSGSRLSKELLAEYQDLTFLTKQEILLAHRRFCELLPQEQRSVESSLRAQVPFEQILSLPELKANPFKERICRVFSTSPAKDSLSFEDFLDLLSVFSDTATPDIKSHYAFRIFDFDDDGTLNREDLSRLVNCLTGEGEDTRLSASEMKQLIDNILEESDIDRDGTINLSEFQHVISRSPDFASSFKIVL
# Assay: FP assay, 1536-well qHTS format (primary and confirmatory screen)
# Type: binding
# Settings: qHTS primary screen hits, Table S2; negative = inhibition
row,SMILES,Efficacy (%)
1,CCCCCCCc1ccc(CCc2cccc(O)c2C(=O)O)cc1 [NCGC00263121-01],-33
2,COc1ccccc1-c1cccc(-c2c(O)c3cc(C#N)c(Cl)cc3[nH]c2=O)c1 [NCGC00263230-01],-24
3,Nc1nc2[nH]cnc2c(=S)[nH]1 [NCGC00263442-01],-56
4,CN(C)[C@@H]1C(=O)C(C(=O)NCN2CCCC2)=C(O)[C@@]2(O)C(=O)C3=C(O)c4c(O)cccc4[C@@](C)(O)[C@H]3C[C@@H]12 [NCGC00263906-02],-27
5,COc1cccc2c1C(=O)c1c(O)c3c(c(O)c1C2=O)C[C@@](O)(C(=O)CO)C[C@@H]3O[C@H]1C[C@H](N)[C@@H](O)[C@H](C)O1 [NCGC00263918-04],-58
6,Cc1ccc(C)n1-c1cnccc1C(=O)O.O=C(O)C(F)(F)F [NCGC00273496-01],-39
7,Cc1ccc(C)n1-c1ccc(C(=O)O)cc1.O=C(O)C(F)(F)F [NCGC00273552-01],-38
8,Cc1ccc(S(=O)(=O)Nc2ccc(O)c3ccccc23)c(C)c1.O=C(O)C(F)(F)F [NCGC00273983-01],-34
9,Cc1ccc(C)n1-c1ccccc1C(=O)O.O=C(O)C(F)(F)F [NCGC00274054-01],-40
10,Nc1nc2c(s1)C(c1ccccc1Cl)CC(O)=N2 (stereo not shown) [NCGC00284018-04],-37
11,CC(=O)NCc1ccc(-c2csc(Nc3cccc(C)c3)n2)o1.O=C(O)C(F)(F)F [NCGC00304445-03],-38
12,CC(=O)NCc1ccc(-c2csc(Nc3cc(C)cc(C)c3)n2)o1.O=C(O)C(F)(F)F [NCGC00314997-03],-84
13,CCCc1ccc(-c2csc(NC(=O)c3ccncc3NS(=O)(=O)c3ccc(C)cc3)n2)cc1.O=C(O)C(F)(F)F [NCGC00318955-01],-35
14,COc1cccc(-c2csc(NC(=O)c3ccncc3NS(=O)(=O)c3ccc(C)cc3)n2)c1.O=C(O)C(F)(F)F [NCGC00319006-01],-58
15,COc1ccc(-c2csc(NC(=O)c3ccncc3NS(=O)(=O)c3ccc(C)cc3)n2)cc1.O=C(O)C(F)(F)F [NCGC00319009-01],-53

# Same assay, conditions: qHTS primary screen hits, Table S2; negative sign = inhibitory curve
row,Curve Class,SMILES
1,-3,Nc1nc2[nH]cnc2c(=S)[nH]1 [NCGC00263442-01]
2,-2.4,CN(C)[C@@H]1C(=O)C(C(=O)NCN2CCCC2)=C(O)[C@@]2(O)C(=O)C3=C(O)c4c(O)cccc4[C@@](C)(O)[C@H]3C[C@@H]12 [NCGC00263906-02]
3,-2.4,Nc1nc2c(s1)C(c1ccccc1Cl)CC(O)=N2 (stereo not shown) [NCGC00284018-04]

row,SMILES,Curve Class
1,Cc1ccc(C)n1-c1cnccc1C(=O)O.O=C(O)C(F)(F)F [NCGC00273496-01],-2.4

# Same assay, conditions: qHTS primary screen hits, Table S2; negative sign = inhibitory curve; several classes where COUNT > 1
row,SMILES,Curve Class
1,CCCCCCCc1ccc(CCc2cccc(O)c2C(=O)O)cc1 [NCGC00263121-01],-3
2,COc1ccccc1-c1cccc(-c2c(O)c3cc(C#N)c(Cl)cc3[nH]c2=O)c1 [NCGC00263230-01],-2.4
3,Cc1ccc(C)n1-c1ccc(C(=O)O)cc1.O=C(O)C(F)(F)F [NCGC00273552-01],-2.2
4,Cc1ccc(S(=O)(=O)Nc2ccc(O)c3ccccc23)c(C)c1.O=C(O)C(F)(F)F [NCGC00273983-01],-2.4
5,Cc1ccc(C)n1-c1ccccc1C(=O)O.O=C(O)C(F)(F)F [NCGC00274054-01],-2.4
6,CC(=O)NCc1ccc(-c2csc(Nc3cccc(C)c3)n2)o1.O=C(O)C(F)(F)F [NCGC00304445-03],-2.4
7,CC(=O)NCc1ccc(-c2csc(Nc3cc(C)cc(C)c3)n2)o1.O=C(O)C(F)(F)F [NCGC00314997-03],-2.4
8,CCCc1ccc(-c2csc(NC(=O)c3ccncc3NS(=O)(=O)c3ccc(C)cc3)n2)cc1.O=C(O)C(F)(F)F [NCGC00318955-01],-2.4
9,COc1cccc(-c2csc(NC(=O)c3ccncc3NS(=O)(=O)c3ccc(C)cc3)n2)c1.O=C(O)C(F)(F)F [NCGC00319006-01],-2.2
10,COc1ccc(-c2csc(NC(=O)c3ccncc3NS(=O)(=O)c3ccc(C)cc3)n2)cc1.O=C(O)C(F)(F)F [NCGC00319009-01],-2.4

# Same assay, conditions: qHTS primary screen hits, Table S2; read-out: IC50
row,SMILES,IC50 [µM]
1,CCCCCCCc1ccc(CCc2cccc(O)c2C(=O)O)cc1 [NCGC00263121-01],24.1
2,COc1ccccc1-c1cccc(-c2c(O)c3cc(C#N)c(Cl)cc3[nH]c2=O)c1 [NCGC00263230-01],62.2
3,Nc1nc2[nH]cnc2c(=S)[nH]1 [NCGC00263442-01],79.4
4,CN(C)[C@@H]1C(=O)C(C(=O)NCN2CCCC2)=C(O)[C@@]2(O)C(=O)C3=C(O)c4c(O)cccc4[C@@](C)(O)[C@H]3C[C@@H]12 [NCGC00263906-02],56.2
5,COc1cccc2c1C(=O)c1c(O)c3c(c(O)c1C2=O)C[C@@](O)(C(=O)CO)C[C@@H]3O[C@H]1C[C@H](N)[C@@H](O)[C@H](C)O1 [NCGC00263918-04],18.5
6,Cc1ccc(C)n1-c1cnccc1C(=O)O.O=C(O)C(F)(F)F [NCGC00273496-01],44.7
7,Cc1ccc(C)n1-c1ccc(C(=O)O)cc1.O=C(O)C(F)(F)F [NCGC00273552-01],44.7
8,Cc1ccc(S(=O)(=O)Nc2ccc(O)c3ccccc23)c(C)c1.O=C(O)C(F)(F)F [NCGC00273983-01],56.2
9,Cc1ccc(C)n1-c1ccccc1C(=O)O.O=C(O)C(F)(F)F [NCGC00274054-01],50.1
10,Nc1nc2c(s1)C(c1ccccc1Cl)CC(O)=N2 (stereo not shown) [NCGC00284018-04],53.2
11,CC(=O)NCc1ccc(-c2csc(Nc3cccc(C)c3)n2)o1.O=C(O)C(F)(F)F [NCGC00304445-03],44.7
12,CC(=O)NCc1ccc(-c2csc(Nc3cc(C)cc(C)c3)n2)o1.O=C(O)C(F)(F)F [NCGC00314997-03],50.1
13,CCCc1ccc(-c2csc(NC(=O)c3ccncc3NS(=O)(=O)c3ccc(C)cc3)n2)cc1.O=C(O)C(F)(F)F [NCGC00318955-01],50.1
14,COc1cccc(-c2csc(NC(=O)c3ccncc3NS(=O)(=O)c3ccc(C)cc3)n2)c1.O=C(O)C(F)(F)F [NCGC00319006-01],47.4
15,COc1ccc(-c2csc(NC(=O)c3ccncc3NS(=O)(=O)c3ccc(C)cc3)n2)cc1.O=C(O)C(F)(F)F [NCGC00319009-01],56.2

# Same assay, conditions: qHTS primary screen of LOPAC/NPACT libraries; negative = inhibition
row,Efficacy (%),SMILES
1,-11,O=c1c(-c2ccc(O)cc2)coc2cc(O)ccc12 [NCGC00261097-01]
2,-26,O=c1c(O)c(-c2ccc(O)cc2O)oc2cc(O)cc(O)c12 [NCGC00261461-01]
3,-16,COC(=O)C1=C(C)NC(C)=C(C(=O)OCCN(C)Cc2ccccc2)C1c1cccc([N+](=O)[O-])c1.Cl (stereo not shown) [NCGC00261494-01]
4,-20,O=C1NC(=O)/C(=C/c2ccc3nccnc3c2)S1 [NCGC00261632-01]
5,-14,O=C1c2c(O)cc(O)cc2OC(c2ccc(O)c(O)c2)C1O (stereo not shown) [NCGC00261882-01]
6,-35,CN1CCN(CCCN2c3ccccc3Sc3ccc(C(F)(F)F)cc32)CC1.Cl.Cl [NCGC00261917-01]

# Second part, the compound before the results:
row,SMILES,Efficacy (%)
1,CN1C[C@H](C(=O)N[C@]2(C)O[C@@]3(O)[C@@H]4CCCN4C(=O)[C@H](Cc4ccccc4)N3C2=O)C[C@@H]2c3cccc4[nH]cc(c34)C[C@H]21.CS(=O)(=O)O [NCGC00261042-01],-32
2,O=C1NCc2c1c1c3ccccc3[nH]c1c1[nH]c3ccccc3c21 [NCGC00261167-01],-24
3,CCCCc1ncc(/C=C(\Cc2cccs2)C(=O)O)n1Cc1ccc(C(=O)O)cc1.CS(=O)(=O)O [NCGC00261493-01],-9

# Same assay, conditions: qHTS primary screen of LOPAC/NPACT libraries; negative sign = inhibitory curve
row,Curve Class,SMILES
1,-2.4,O=c1c(-c2ccc(O)cc2)coc2cc(O)ccc12 [NCGC00261097-01]
2,-1.2,O=c1c(O)c(-c2ccc(O)cc2O)oc2cc(O)cc(O)c12 [NCGC00261461-01]
3,-1.2,COC(=O)C1=C(C)NC(C)=C(C(=O)OCCN(C)Cc2ccccc2)C1c1cccc([N+](=O)[O-])c1.Cl (stereo not shown) [NCGC00261494-01]
4,-1.2,O=C1NC(=O)/C(=C/c2ccc3nccnc3c2)S1 [NCGC00261632-01]
5,-1.2,O=C1c2c(O)cc(O)cc2OC(c2ccc(O)c(O)c2)C1O (stereo not shown) [NCGC00261882-01]
6,-2.4,CN1CCN(CCCN2c3ccccc3Sc3ccc(C(F)(F)F)cc32)CC1.Cl.Cl [NCGC00261917-01]

# The remaining lines, values behind:
row,SMILES,Curve Class
1,CN1C[C@H](C(=O)N[C@]2(C)O[C@@]3(O)[C@@H]4CCCN4C(=O)[C@H](Cc4ccccc4)N3C2=O)C[C@@H]2c3cccc4[nH]cc(c34)C[C@H]21.CS(=O)(=O)O [NCGC00261042-01],-2.4
2,O=C1NCc2c1c1c3ccccc3[nH]c1c1[nH]c3ccccc3c21 [NCGC00261167-01],-1.4
3,CCCCc1ncc(/C=C(\Cc2cccs2)C(=O)O)n1Cc1ccc(C(=O)O)cc1.CS(=O)(=O)O [NCGC00261493-01],-1.4

# Same assay, conditions: qHTS primary screen of LOPAC/NPACT libraries; read-out: IC50
row,IC50 [µM],SMILES
1,56.2,O=c1c(-c2ccc(O)cc2)coc2cc(O)ccc12 [NCGC00261097-01]
2,4,O=c1c(O)c(-c2ccc(O)cc2O)oc2cc(O)cc(O)c12 [NCGC00261461-01]
3,3.5,COC(=O)C1=C(C)NC(C)=C(C(=O)OCCN(C)Cc2ccccc2)C1c1cccc([N+](=O)[O-])c1.Cl (stereo not shown) [NCGC00261494-01]
4,7.9,O=C1NC(=O)/C(=C/c2ccc3nccnc3c2)S1 [NCGC00261632-01]
5,10,O=C1c2c(O)cc(O)cc2OC(c2ccc(O)c(O)c2)C1O (stereo not shown) [NCGC00261882-01]

# The next lines start with the compound.
row,SMILES,IC50 [µM]
1,CN1C[C@H](C(=O)N[C@]2(C)O[C@@]3(O)[C@@H]4CCCN4C(=O)[C@H](Cc4ccccc4)N3C2=O)C[C@@H]2c3cccc4[nH]cc(c34)C[C@H]21.CS(=O)(=O)O [NCGC00261042-01],56.2
2,O=C1NCc2c1c1c3ccccc3[nH]c1c1[nH]c3ccccc3c21 [NCGC00261167-01],1.4
3,CCCCc1ncc(/C=C(\Cc2cccs2)C(=O)O)n1Cc1ccc(C(=O)O)cc1.CS(=O)(=O)O [NCGC00261493-01],31.6
